One series relates to HCC1428 tumor cells. Briefly: Activity in mice bearing human HCC1428 breast cancer xenograft tumors. The series is classed as in vivo. The protocol: The activity of Compound (A) as evaluated in mice bearing human HCC1428 breast cancer xenograft tumors. Each mouse was inoculated subcutaneously at the right flank with HCC1428 tumor cells (1×10^7) in 0.2 mL mixture of PBS and Matrigel (PBS: Matrigel=1:1) for tumor development, which has been subcutaneously implanted with 17beta-estradiol tablets (0.18 mg, 90-day release) two days before cell implantation. Treatments were started on day 21 after tumor inoculation when the average tumor size reached approximately 185 mm^3. The animals were assigned into two groups using an excel-based randomization software performing stratified randomization based upon their tumor volumes. Each group consisted of 10 tumor bearing mice. The vehicle control or Compound (A) at 80 mg/kg was administrated once daily to the mice by oral gavage for 28 days. In FIG. 5, the top line is vehicle, and the bottom line is Compound (A).
For orientation: A xenograft is tissue or cells of one species grown in another, often human tumour cells in immunodeficient mice.

For series [1], the system named is MCF-7 tumor cells. Briefly: Antitumor activity of Compound (A) as single agent in MCF-7 xenograft model. The series is classed as in vivo, mouse. The protocol: The antitumor activity of Compound (A) was assessed using the MCF-7 xenograft model. Each mouse was inoculated subcutaneously on the 2nd right mammary fat pad with 1.5×10^7 MCF-7 tumor cells in 200 μL DMEM Matrigel mixture (1:1 ratio) without serum for the tumor development. In addition, estradiol benzoate injection was delivered by s.c. (40 ug/20 uL, twice weekly). When mean tumor size reached 204 mm^3, animals were randomized into 2 groups (10 animals/group) and the treatments were initiated. Compound (A) or vehicle control was administered once daily by oral gavage and continued for 28-days. Study endpoints included daily body weight, clinical observations, tumor volume. […] In FIG. 3, the top line is vehicle, and the bottom line is Compound (A) (80 mg/kg qd×22 p.o).

Series [2] has as its system tamoxifen resistant ZR-75-1 tumor cells (ZR-75-1R). Briefly: Single agent efficacy in ZR-75-1 tamoxifen resistant tumor model. The series is classed as in vivo, mouse. Particulars: post 28 days treatment; Tamoxifen 100 mg/kg 5 days per week for three weeks; Compound (A) 80 mg/kg orally daily for 28 days; FIG. 4. As for the experimental part:
Compound (A)'s efficacy as a single agent was evaluated in ZR-75-1 tamoxifen resistant tumor model. The tamoxifen resistant ZR-75-1 tumor cells (ZR-75-1R) were maintained in vitro as monolayer culture in RPMI1640 Medium supplemented with 10% fetal bovine serum and 10 μM tamoxifen at 37° C. in an atmosphere of 5% CO2 incubator. Each mouse was then inoculated subcutaneously on the right flank with 1×10^7 ZR-75-1R tumor cells in 100 μL RPMI-1640 Matrigel mixture (1:1 ratio) without serum for the tumor development. In addition, estradiol benzoate injection was delivered by s.c. (40 ug/20 uL, twice weekly). Mice were then randomized into 3 groups when mean tumor size reached 191 mm^3 and treatment was started. Tamoxifen was dosed at 100 mg/kg 5 days per week for three weeks, Compound (A) was orally dosed at 80 mg/kg daily for 28 days. Study endpoints included daily body weight, clinical observations, tumor volume. In FIG. 4, the top line is Tamoxifen (100 mg/kg), the middle line is vehicle, and the bottom line is Compound (A) (80 mg/kg). […] No other gross clinical abnormalities were observed during the treatment period and animal body loss was manageable by giving animals dosing holiday.

Series [3] deals with HER2+ JIMT-1 breast cancer cell line. Briefly: HER2+ JIMT-1 breast cancer xenograft, Study 1-Part 1. Format: in vivo. Conditions: Compound (A) 60 mg/kg p.o. qd × 28, trastuzumab 10 mg/kg i.p. qw × 4. As for the experimental part: The HER2+ JIMT-1 breast cancer cell line was used for tumor xenograft inoculations and subsequent treatment. […] Treatment was started when mean tumor size reached 204 mm^3. Mice were then randomized into 5 groups and treatments were administered to the tumor-bearing mice accordingly to the study design in Table 2.

Another series has as its system MCF-7 cells. The series can be described thus: Compound (A) in combination with palbociclib at a lower dose in MCF-7 xenograft model. Conditions: Compound (A) 60 mg/kg, palbociclib 25 mg/kg, alone or in combination; FIG. 7. Format: in vivo, mouse. As for the experimental part:
The antitumor activity of Compound (A) in combination with a CDK4/6 inhibitor, palbociclib at a lower dose was evaluated in the MCF-7 xenograft model. Each mouse was inoculated subcutaneously on the 2nd right mammary fat pad with 1.5×10^7 MCF-7 cells in 200 μL DMEM Matrigel mixture (1:1 ratio) without serum for the tumor development. In addition, estradiol benzoate injection was delivered by s.c. (40 ug/20 uL, twice weekly). The treatments were started when mean tumor size reached 203 mm^3. Mice were randomized into 4 groups (8 mice per group) and treated with vehicle control, 60 mg/kg Compound (A) alone, 25 mg/kg Palbociclib alone, Compound (A) at 60 mg/kg in combination with 25 mg/kg palbociclib. Study endpoints included daily body weight, clinical observations, tumor volume.

The test system of series [4] is HER2+ JIMT-1 breast cancer cell line. The series can be described thus: HER2+ JIMT-1 breast cancer xenograft, Study 1-Part 2 (high initial tumor burden). Format: in vivo, NOD/SCID mice. Conditions: Day 14 of second part; tumors approximately 1000 mm^3 at start; Compound (A) 60 mg/kg p.o. qd; trastuzumab 10 mg/kg i.p. qw; vs. vehicle.
In series [5] the test system is palbociclib-resistant breast cancer cells (CTG-1207). The series can be described thus: Palbociclib-resistant breast cancer PDX model (CTG-1207). The series is classed as in vivo, mice. Particulars: Compound (A) 80 mg/kg, palbociclib 50 mg/kg, alone or in combination; FIG. 10A. As for the experimental part: The antitumor activity of Compound (A) in combination with palbociclib was further evaluated in a palbociclib-resistant breast cancer PDX model (CTG-1207). Mice were inoculated subcutaneously with palbociclib-resistant breast cancer cells in DMEM Matrigel mixture (1:1 ratio) without serum for tumor development. Once tumor size reached approximately 200 mm^3, mice were randomized into 4 groups (8 mice per group) and treated with vehicle control, 80 mg/kg Compound (A) alone, 50 mg/kg Palbociclib alone, or Compound (A) at 80 mg/kg in combination with 50 mg/kg palbociclib. Study endpoints included daily body weight, clinical observations, tumor volume.

Series [6] has as its system MCF-7 tumor cells. Briefly: Compound (A) in combination with palbociclib in MCF-7 xenograft model. The series is classed as in vivo, mouse. Particulars: 28 days; for tumor regression: Compound (A) 80/60 mg/kg, palbociclib 50 mg/kg, alone or in combination; for TGI: monotherapy: Compound (A) 80/60 mg/kg alone or palbociclib 50 mg/kg alone, FIG. 6. The protocol:
The antitumor activity of Compound (A) in combination with a CDK4/6 inhibitor, palbociclib was evaluated in the MCF-7 xenograft model. Each mouse was inoculated subcutaneously on the right flank with the MCF-7 tumor cells (1.5×10^7) in 200 μL DMEM Matrigel mixture (1:1 ratio) without serum for the tumor development. In addition, estradiol benzoate injection was delivered by s.c. (40 ug/20 uL, twice weekly). When mean tumor size reached 202 mm^3, mice were randomized into 5 groups (10 animals/group) and treatment was started. Animals were dosed with vehicle, 80/60 mg/kg Compound (A) alone, 50 mg/kg palbociclib alone, 80 mg/kg Compound (A) in combination with 50 mg/kg Palbociclib by sequential dosing schedule (alternated per two weeks) or Compound (A) at 80/60 mg/kg in combination with palbociclib at 50 mg/kg. Treatment periods were 28 days. In FIG. 6, the top line (indicated with circles) is vehicle. […] Furthermore, Compound (A) in combination with palbociclib induced around 55% tumor regression.

The mark [7] stands for this setting: Compound (A) 80 mg/kg once daily p.o. 28 days.
Where [8] appears, read: Compound (A) 80 mg/kg once daily p.o.

`C=CCn1c(=O)c2cnc(Nc3ccc(N4CCN(C)CC4)cc3)nc2n1-c1ccc2c(n1)[C@@](O)(CC)CC2` [Compound (A)]: the “tumor growth inhibition (TGI)” value in the series with HCC1428 tumor cells (Compound (A) 80 mg/kg once daily by oral gavage for 28 days, FIG. 5) turned out to be 96.2%. In addition, in the series on HCC1428 tumor cells (setting [7]), the body weight loss result is “no significant body weight loss” and the clinical observations result is reported as “no adverse clinical observations”. In addition, the “inhibition of tumor growth” value with MCF-7 tumor cells [1] (Compound (A) 80 mg/kg once daily by oral gavage, single agent, FIG. 3) is 132.6%. In the series with MCF-7 tumor cells [1] (setting [8]), the clinical observations result is “no adverse clinical observations” and the mean body weights entry was “no significant impact on mean body weights”. Besides, the “TGI (tumor growth inhibition)” value in series [2] is on record as 69.9%. The “tumor growth inhibition (TGI) on Day 29 compared to respective vehicle controls” value in series [3] (combination vs. either vehicle control) stood at 68%. Further, in series [3] (Day 29, Vehicle A p.o.), the “TGI (%) vs. Vehicle A” value worked out at 67.7%. For the same compound, the TGI in the series on MCF-7 cells is 48.6%. Moreover, the “TGI (%) on Day 14” value in series [4] is on record as 68.2%. In addition, the “tumor growth / TGI (in words)” value in series [5] was “reduced tumor growth”. Further, in the series on MCF-7 tumor cells [6], the tumor regression came to 32.7% and the TGI result was “around 116%”.
As to `CC/C(=C(\c1ccccc1)c1ccc(OCCN(C)C)cc1)c1ccccc1` [Tamoxifen, reference compound], the “TGI (tumor growth inhibition)” value in series [2] is given as −47.9%.
For `CC(=O)c1c(C)c2cnc(Nc3ccc(N4CCNCC4)cn3)nc2n(C2CCCC2)c1=O` [palbociclib, reference compound], the TGI in the series on MCF-7 cells came out at 14.2%. Moreover, in the series on MCF-7 tumor cells [6], the tumor regression was determined as 39.1% and the TGI is on record as around 119%.

The values are drawn from patent US20240325397A1, “USE OF COMBINATION THERAPY FOR TREATING CANCER” (Recurium IP Holdings, LLC, priority 2021, published 2024).
